Experiments:
[1] = target: T1, APOL1 G2 (Homo sapiens, UniProt O14791, DEL388-389); assay: APOL1 calcium transport inhibition assay (GCaMP6f calcium influx, FLIPR) in HEK T-REx/GCaMP6f/APOL1 G2 K6.3 cells; type: cell-based; conditions: inhibition of APOL1-mediated calcium influx; geometric mean of at least 2 assay runs, † = single assay run (technical duplicate)
T1 construct: expressed in transfected cells; host or cells: HEK293 T-REx clonal lines: HEK T-REx/GCaMP6f/APOL1 G2 K6.3 in A1, HEK293/T-REx APOL1 G2/clone #2 in A2
T1 sequence (O14791 with tags, fused parts or gaps DEL388-389): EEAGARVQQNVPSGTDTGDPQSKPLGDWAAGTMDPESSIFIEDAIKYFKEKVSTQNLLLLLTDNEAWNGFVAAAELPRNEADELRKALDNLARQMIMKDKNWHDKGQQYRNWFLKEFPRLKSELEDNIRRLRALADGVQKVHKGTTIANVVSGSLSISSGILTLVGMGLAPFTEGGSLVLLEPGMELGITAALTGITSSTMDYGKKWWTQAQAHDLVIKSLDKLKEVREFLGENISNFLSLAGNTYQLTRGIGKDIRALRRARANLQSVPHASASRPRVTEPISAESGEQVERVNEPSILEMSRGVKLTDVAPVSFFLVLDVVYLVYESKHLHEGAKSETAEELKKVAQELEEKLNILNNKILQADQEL
In short: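 HEK293 cells stably expressing GCaMP6f, APOL1 G2 induced 6 h with doxycycline (20 ng/mL added), then washed into Ca2+-free Tyrode's buffer pH 7.4. Compounds (8-point dose response) preincubated 10 min at room temperature, then Ca2+ injected to 5 mM final and influx read on FLIPR. AC50 reported as geometric mean of runs.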

[2] = target: T1, APOL1 G2; assay: Rescue of HEK293 cell death caused by overexpression of APOL1 (CellTiter-Glo luminescence), HEK293/T-REx APOL1 G2/clone #2; type: cell-based; conditions: reversal of cell death caused by overexpression of APOL1; geometric mean of at least 2 assay runs, † = single assay run (technical duplicate)
In short: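 Rescue EC50s come from four-parameter logistic fits, geometric mean of at least 2 runs on separate days, each in duplicate. Readout: CellTiter-Glo luminescence after 17 h at 37 °C of 5,000 HEK293/T-REx APOL1 G2 clone #2 cells/well, with 6 ng/mL doxycycline to induce APOL1 and 3-fold serial compound dilutions in 0.5% DMSO.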

In the case of `C[C@H]1CN(CCc2cccc(Cl)c2)C[C@@H]1COc1ccc(S(=O)(=O)CCO)cc1` (single isomer, unassigned) [Compound 112, 2-(4-{[(3R,4R or 3S,4S)-1-[2-(3-chlorophenyl)ethyl]-4-methylpyrrolidin-3-yl]methoxy}benzene-sulfonyl)ethan-1-ol], the AC50 [1] is reported as over 159 nM and the EC50 [2] is reported as 29.8 nM.
`C[C@@H]1CN(CCc2cc(F)cc(C#N)c2)C[C@H]1COc1ccc(S(C)(=O)=O)cc1` [Compound 195, 3-fluoro-5-{2-[(3S,4S)-3-[(4-methanesulfonylphenoxy)methyl]-4-methylpyrrolidin-1-yl]ethyl}benzonitrile] gave an AC50 [1] of 236 nM and an EC50 [2] of 226 nM.
Compound `C[C@@H]1C[C@H](COc2ccc(S(C)(=O)=O)cc2)CN1CC(O)c1cc(C#N)cc(C#N)c1` (single isomer, unassigned) [Compound 119, 5-[(1S or 1R)-1-hydroxy-2-[(2R,4S)-4-[(4-methanesulfonylphenoxy)methyl]-2-methylpyrrolidin-1-yl]ethyl]benzene-1,3-dicarbonitrile] has an AC50 [1] of 784 nM and an EC50 [2] of 133 nM.
`CN=S(C)(=O)c1ccc(OC[C@@H]2CN(CCc3cccc(C#N)c3)C[C@H]2C)cc1` (single isomer, unassigned) [Compound 171, 3-{2-[(3S,4S)-3-methyl-4-({4-[(S or R)-methyl(methylimi-no)oxo-λ^6-sulfanyl]phenoxy}methyl)pyrrolidin-1-yl]ethyl}benzonitrile] gave an AC50 [1] of 212 nM and an EC50 [2] of 146 nM.
With `CN(c1ccc(OC[C@@H]2CCN(CCc3cccc(Cl)c3)C2)cc1)S(C)(=O)=O` [Compound 50, (R)-N-(4-((1-(3-chlorophenethyl)pyrrolidin-3-yl)methoxy)phenyl)-N-methylmethanesulfonamide] the AC50 [1] was 1320 nM and the EC50 [2] was 2020 nM.
In the case of `CC(Cc1cccc(Cl)c1)NC[C@H](O)COc1ccc(N(C)S(C)(=O)=O)cc1` (single isomer, unassigned) [Compound 95, N-(4-((S)-3-(((S) or (R)-1-(3-chlorophenyl)propan-2-yl)amino)-2-hydroxypropoxy)phe-nyl)-N-methylmethanesulfon-amide], the AC50 [1] is reported as 1540 nM and the EC50 [2] is reported as 6900 nM.
For `CN(c1ccc(OC[C@@H](O)CN(CCc2cccc(Cl)c2)CC2CC2)cc1)S(C)(=O)=O` [Compound 59, (S)—N-(4-(3-((3-chlorophenethyl)(cyclopropylmethyl)amino)-2-hydroxypropoxy)phenyl)-N-methylmethanesulfonamide], the AC50 [1] was 245 nM and the EC50 [2] was 1060 nM.
`CN=S(C)(=O)c1ccc(OC[C@H]2C[C@@H](C)N(CCc3cccc(C#N)c3)C2)cc1` (single isomer, unassigned) [Compound 159, 3-{2-[(2R,4S)-2-methyl-4-({4-[(S or R)methyl(methyli-mino)oxo-λ^6-sulfanyl]phenoxy}methyl)pyrrolidin-1-yl]ethyl}benzonitrile] gave an AC50 [1] of 358 nM and an EC50 [2] of 24.9 nM.
`C[C@H]1CN(CCc2cccc(Cl)c2)C[C@@H]1COc1ccc(N(C)S(C)(=O)=O)cc1` (single isomer, unassigned) [Compound 47, N-(4-(((3R,4R) or (3S,4S)-1-(3-chlorophenethyl)-4-methylpyrrolidin-3-yl)methoxy)phenyl)-N-methylmethanesulfonamide] gave an AC50 [1] of 434 nM and an EC50 [2] of 516 nM.
For `CN(c1ccc(OCC2CN(CCc3cccc(Cl)c3)CCCO2)cc1)S(C)(=O)=O` (single isomer, unassigned) [Compound 11, (R) or (S)-N-(4-((4-(3-chlorophenethyl)-1,4-oxazepan-2-yl)methoxy)phenyl)-N-methylmethane-sulfonamide], the AC50 [1] was 1190 nM and the EC50 [2] was 1000 nM.
Compound `C[C@@H]1C[C@H](COc2ccc(S(=O)(=O)CCCS(C)(=O)=O)cc2)CN1CCc1cc(Cl)cc(C#N)c1` [Compound 164, 3-chloro-5-{2-[(2R,4S)-4-{[4-(3-methanesulfonylpro-panesulfonyl)phe-noxy]methyl}-2-methylpyrrolidin-1-yl]ethyl}benzonitrile] has an AC50 [1] of 364 nM and an EC50 [2] of 34.1 nM.
`CN=S(C)(=O)c1ccc(OC[C@H]2C[C@@H](C)N(CCc3cccc(C#N)c3)C2)cc1` (stereo partly drawn) [Compound 157, 3-[2-[(2R,4S)-2-methyl-4-({4-[methyl(methyli-mino)oxo-λ^6-sulfanyl]phenoxy}methyl)pyrrolidin-1-yl]ethyl}benzonitrile] gave an AC50 [1] of 441 nM and an EC50 [2] of 38.9 nM.
`CN(c1ccc(OC[C@H]2CCN(CCc3cccc(Cl)c3)C2)cc1)S(C)(=O)=O` [Compound 49, (S)-N-(4-((1-(3-chlorophenethyl)pyrrolidin-3-yl)methoxy)phenyl)-N-methylmethanesulfonamide] gave an AC50 [1] of 847 nM and an EC50 [2] of 957 nM.
`CS(=O)(=O)c1ccc(OC[C@@H](O)CN2CCCCC2Cc2cccc(Cl)c2)cc1` (stereo partly drawn) [Compound 62, (2S)-1-(2-(3-chlorobenzyl)piperidin-1-yl)-3-(4-(methylsulfonyl)phenoxy)propan-2-ol] was tested, and the AC50 [1] was 396 nM and the EC50 [2] was 642 nM.
For `COC(CN1CCC[C@H](COc2ccc(S(C)(=O)=O)cc2)C1)c1cccc(Cl)c1` (single isomer, unassigned) [Compound 24, (S)-1-((S)-2-(3-chlorophenyl)-2-methoxyethyl)-3-((4-(methylsulfonyl)phenoxy)methyl)piperidine or (S)-1-((R)-2-(3-chlorophenyl)-2-methoxyethyl)-3-((4-(methylsulfonyl)phenoxy)methyl)piperidine], the AC50 [1] was 501 nM and the EC50 [2] was 334 nM.
Compound `CS(=O)(=O)c1ccc(CCC2CCCN(CCc3cccc(Cl)c3)C2)cc1` (stereo not shown) [Compound 39, 1-(3-chlorophenethyl)-3-(4-(methylsulfonyl)phenethyl)piperidine] has an AC50 [1] of 249 nM and an EC50 [2] of 904 nM.
`CC1CC(COc2ccc(S(C)(=O)=O)cc2)CN1CCc1cc(Cl)cc(C#N)c1` (single isomer, unassigned) [Compound 199, rac-cis or trans-3-chloro-5-{2-[4-[(4-methanesulfonylphenoxy)methyl]-2-methylpyrrolidin-1-yl]ethyl}benzonitrile] gave an AC50 [1] of 817 nM and an EC50 [2] of 2440 nM.
For `CCN(CCc1cccc(Cl)c1)C[C@H](O)COc1ccc(N(C)S(C)(=O)=O)cc1` [Compound 60, (S)-N-(4-(3-((3-chlorophenethyl)(ethyl)amino)-2-hydroxypropoxy)phenyl)-N-methylmethanesulfonamide], the AC50 [1] was under 267 nM and the EC50 [2] was 306 nM.
In the case of `CS(=O)(=O)c1ccc(OC[C@H]2CCCN(CCc3cccc(Cl)c3)C2)cc1` [Compound 16, (S)-1-(3-chlorophenethyl)-3-((4-(methylsulfonyl)phenoxy)methyl)piperidine], the AC50 [1] is reported as 231 nM and the EC50 [2] is reported as 329 nM.
`CC1CC(COc2ccc(S(C)(=O)=O)cc2)CN1CCc1cccc(C#N)c1` (single isomer, unassigned) [Compound 135, rac-cis or trans-3-{2-[4-[(4-methanesulfon-ylphenoxy)meth-yl]-2-methyl-pyrrolidin-1-yl]-ethyl}benzo-nitrile] was tested, and the AC50 [1] was over 12500 nM and the EC50 [2] was 5730 nM.
Work on `C[C@@H]1CN(CC(O)c2cc(Cl)cc(C#N)c2)C[C@H]1COc1ccc(S(C)(=O)=O)cc1` (stereo partly shown) [Compound 120] yielded an AC50 [1] of 461 nM and an EC50 [2] of 195 nM.
With `CN(c1ccc(OC[C@H](O)CN2CCOC(c3cccc(Cl)c3)C2)cc1)S(C)(=O)=O` (stereo partly drawn) [Compound 83, N-(4-((2R)-3-(2-(3-chlorophenyl)morpho-lino)-2-hydroxypropoxy)phe-nyl)-N-methylmethanesulfon-amide] the AC50 [1] was over 25000 nM and the EC50 [2] was over 30000 nM.
`CN=S(C)(=O)c1ccc(OC[C@@H]2CN(CCc3cc(Cl)cc(C#N)c3)CCN2)cc1` (single isomer, unassigned) [Compound 188, 3-chloro-5-{2-[(3S)-3-({4-[(R or S)-methyl(methyl-imino)oxo-λ^6-sulfanyl]pheno-xy}methyl)piper-azin-1-yl]ethyl}benzo-nitrile] showed an AC50 [1] of 511 nM and an EC50 [2] of 303 nM.
Work on `CN(c1ccc(OC[C@H](O)CNCCc2cccc(Cl)c2)cc1)S(C)(=O)=O` [Compound 87, (R)-N-(4-(3-((3-chlorophenethyl)a-mino)-2-hydroxypropoxy)phe-nyl)-N-methylmethanesulfon-amide] yielded an AC50 [1] of 352 nM and an EC50 [2] of 1850 nM.
Compound `CS(=O)(=O)c1ccc(OC[C@H](O)CNC(Cc2cccc(Cl)c2)C2CC2)cc1` (stereo partly drawn) [Compound 102, (2R)-1-((2-(3-chlorophenyl)-1-cyclopropylethyl)a-mino)-3-(4-(methylsulfonyl)phe-noxy)propan-2-ol] has an AC50 [1] of 2190 nM and an EC50 [2] of over 21800 nM.
`C[C@@H]1CN(CCc2cccc(C#N)c2)C[C@H]1COc1ccc(S(=O)(=O)CCCS(C)(=O)=O)cc1` [Compound 168, 3-{2-[(3S,4S)-3-{[4-(3-methanesulfonylpro-panesulfonyl)phe-noxy]methyl}-4-methylpyrrolidin-1-yl]ethyl}benzonitrile] gave an AC50 [1] of 179 nM and an EC50 [2] of 126 nM.
